Source: PubChem BioAssay (NCI)
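Following 48 hours of exposure in 96-well plates, responses at five concentrations were used to interpolate endpoints linearly. At the TGI there is no net growth.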

Tests used:
Assay in all cases: DTP human tumour cell line panel, 48 h
[1] = system: 786-0 renal
[2] = system: A498 renal
[3] = system: A549 NSCLC
[4] = system: ACHN renal
[5] = system: CAKI-1 renal
[6] = system: CCRF-CEM leukemia
[7] = system: COLO 205 colon
[8] = system: DU-145 prostate
[9] = system: EKVX NSCLC
[10] = system: HCC-2998 colon
[11] = system: HCT-116 colon
[12] = system: HCT-15 colon
[13] = system: HL-60(TB) leukemia
[14] = system: HOP-62 NSCLC
[15] = system: HOP-92 NSCLC
[16] = system: HS 578T breast
[17] = system: HT29 colon
[18] = system: IGROV1 ovarian
[19] = system: K-562 leukemia
[20] = system: KM12 colon
[21] = system: LOX IMVI melanoma
[22] = system: M14 melanoma
[23] = system: MALME-3M melanoma
[24] = system: MCF7 breast
[25] = system: MDA-MB-231 breast
[26] = system: MDA-MB-435
[27] = system: MDA-N
[28] = system: MOLT-4 leukemia
[29] = system: NCI-H226 lung
[30] = system: NCI-H23 lung
[31] = system: NCI-H460 lung
[32] = system: NCI/ADR-RES ovarian
[33] = system: OVCAR-3 ovarian
[34] = system: OVCAR-4 ovarian
[35] = system: OVCAR-5 ovarian
[36] = system: OVCAR-8 ovarian
[37] = system: PC-3 prostate
[38] = system: RPMI-8226 leukemia
[39] = system: RXF 393 renal
[40] = system: SF-268 CNS
[41] = system: SF-295 CNS
[42] = system: SF-539 CNS
[43] = system: SK-MEL-2 melanoma
[44] = system: SK-MEL-28 melanoma
[45] = system: SK-MEL-5 melanoma
[46] = system: SK-OV-3 ovarian
[47] = system: SN12C renal
[48] = system: SNB-19 CNS
[49] = system: SNB-75 CNS
[50] = system: SR leukemia
[51] = system: SW-620 colon
[52] = system: T-47D breast
[53] = system: TK-10 renal
[54] = system: U251 CNS
[55] = system: UACC-257 melanoma
[56] = system: UO-31 renal

In the case of O=C(NC(Cl)(C(F)(F)F)C(F)(F)F)c1ccc(F)cc1, the TGI [1] is reported as > 100 µM, the TGI [2] is reported as > 100 µM and the TGI [3] is reported as > 100 µM. For the same molecule, the TGI [4] was > 100 µM, the TGI [5] was > 100 µM and the TGI [6] was > 100 µM. The TGI [7] was > 100 µM, the TGI [8] was > 100 µM and the TGI [9] was > 100 µM. The TGI [10] was > 100 µM, the TGI [11] was > 100 µM and the TGI [12] was > 100 µM. For the same molecule, the TGI [13] was > 100 µM, the TGI [14] was > 100 µM and the TGI [15] was > 100 µM. For the same molecule, the TGI [16] was > 100 µM, the TGI [17] was > 100 µM and the TGI [18] was > 100 µM. The TGI [19] was > 100 µM, the TGI [20] was > 100 µM and the TGI [21] was > 100 µM. The TGI [22] was > 100 µM, the TGI [23] was > 100 µM and the TGI [24] was > 100 µM. The TGI [25] was > 100 µM, the TGI [26] was > 100 µM and the TGI [27] was > 100 µM. The TGI [28] was > 100 µM, the TGI [29] was > 100 µM and the TGI [30] was > 100 µM. The TGI [31] was > 100 µM, the TGI [32] was > 100 µM and the TGI [33] was > 100 µM. For the same molecule, the TGI [34] was > 100 µM, the TGI [35] was > 100 µM and the TGI [36] was > 100 µM. The TGI [37] was > 100 µM, the TGI [38] was > 100 µM and the TGI [39] was > 100 µM. For the same molecule, the TGI [40] was > 100 µM, the TGI [41] was > 100 µM and the TGI [42] was > 100 µM. The TGI [43] was > 100 µM, the TGI [44] was > 100 µM and the TGI [45] was > 100 µM. The TGI [46] was > 100 µM, the TGI [47] was > 100 µM and the TGI [48] was > 100 µM. The TGI [49] was 91.6 µM, the TGI [50] was > 100 µM and the TGI [51] was > 100 µM. The TGI [52] was > 100 µM, the TGI [53] was > 100 µM and the TGI [54] was > 100 µM. For the same molecule, the TGI [55] was > 100 µM and the TGI [56] was > 100 µM.
